Data published in PubChem BioAssay AID449764 (Southern Research Specialized Biocontainment Screening …, 2010).

System: Mycobacterium tuberculosis H37Rv growth inhibition, no glycerol
Experiment: Confirmatory growth inhibition assay, Mycobacterium tuberculosis H37Rv, absence of glycerol (AID 449764);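 further: growth read after 7 days of incubation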
Conditions: for IC90: measured here: IC90 growth inhibition

O=[N+]([O-])c1cn(-c2nc(-c3ccco3)cc(C(F)(F)F)n2)cn1
IC50: 3.79 µM | IC90: > 100 µM

COc1ccc(/C=N/Nc2nncn2N)cc1Br
IC50: 10.5 µM | IC90: 13 µM

c1ccc2c(c1)ncn2CCCCOc1ccc2c(c1)CCC2
IC50: 23.9 µM | IC90: 27.4 µM

O=C(c1ccccc1)C1CN(Cc2ccccc2)CCC1(O)c1ccccc1 (centres undefined)
IC50: 16.3 µM | IC90: 21.8 µM

CCOc1ccc2nc(N/C(N)=N/C(=S)Nc3cccc(C)c3)nc(C)c2c1
IC50: 36 µM | IC90: > 100 µM

Clc1ccc(NNc2ccnc3cc(Cl)ccc23)cc1
IC50: 15.4 µM | IC90: 19.9 µM

Clc1ccc2c(c1)CCc1cccnc1C2=C1CCNCC1
IC50: 32.9 µM | IC90: 38.8 µM

CNC(CC(=O)c1ccc([N+](=O)[O-])cc1)C(Cl)(Cl)Cl (centres undefined)
IC50: 5.37 µM | IC90: 7.81 µM

CCOc1ccc(CN(C)CC(O)COC(c2ccc(OC)cc2)c2ccc(OC)cc2)cc1 (centres undefined)
IC50: 16.1 µM | IC90: 18.9 µM

COc1cc(NC(=O)c2cccs2)c(C(=O)OCC(=O)NCc2ccco2)cc1OC
IC50: 34.9 µM | IC90: > 100 µM

C/C(=C\C(=S)Nc1ccccc1)Nc1ccc2ccccc2c1
IC50: 37.8 µM | IC90: 50.8 µM

COc1cccc(COC(=O)c2ccc3c(=O)n4c(nc3c2)CCC4)c1OC
IC50: 28.2 µM | IC90: 59 µM

CCOC(=O)c1cc2cc3ccccc3cc2oc1=O
IC50: 84.8 µM | IC90: > 100 µM

NN(Cc1ccccc1)C(=S)Nc1ccc(Cl)c(Cl)c1
IC50: 25.2 µM | IC90: 39.4 µM

COCCn1nnnc1C(c1cc2cc(OC)ccc2[nH]c1=O)N1CCC(Cc2ccccc2)CC1 (centres undefined)
IC50: 89.8 µM | IC90: > 100 µM

CN(CC(=O)Nc1ccc(OC(F)(F)F)cc1)C(=O)/C=C/c1cc2c(cc1[N+](=O)[O-])OCO2
IC50: 34.5 µM | IC90: 40.5 µM

O=C(C/C=N\OCc1ccc([N+](=O)[O-])cc1)Nc1ccc(F)cc1F
IC50: 82.9 µM | IC90: > 100 µM

CCc1ccc(/C(C)=N/Nc2cc(Cl)nc(C)n2)cc1
IC50: 34.1 µM | IC90: 59.5 µM

O=C1Nc2ccc(Br)cc2/C1=C/C(=O)c1ccc2c(c1)OCO2
IC50: 18.1 µM | IC90: 23.7 µM

C=C[C@]1(C)C[C@@H](OC(=O)CSCCN(CC)CC)[C@]2(C)C(C)CC[C@]3(CCC(=O)[C@H]32)[C@@H](C)[C@@H]1O (some centres undefined)
IC50: 5.69 µM | IC90: 8.16 µM

COc1ccc(-c2cn(Cc3ccc(C(=O)NCc4ccc(C)cc4)cc3)c(C(C)N)n2)cc1 (centres undefined)
IC50: 66 µM | IC90: 82.4 µM

COc1ccc(/C=C2\CCC/C(=C\C=N\N(C)C)C2=O)cc1
IC50: 12.4 µM | IC90: 17.8 µM

Cc1ccsc1/C=C1\SC(N2CCOCC2)=NC1=O
IC50: 23.4 µM | IC90: 27 µM

O=c1cc(/C=C/c2ccccc2)oc2ccccc12
IC50: 97.6 µM | IC90: > 100 µM

CSc1ccc(NC(=O)Nc2cccn(Cc3ccccc3)c2=O)cc1
IC90: > 100 µM

O=C(OCC(=O)c1c[nH]c2ccccc12)c1cc(Br)ccc1O
IC50: 11.2 µM | IC90: 13.1 µM

Oc1ccc2ccccc2c1C1Nc2cccc3cccc(c23)N1
IC90: > 100 µM

COc1ccc(Nc2nc(N3CCCCC3)nc3ccccc23)c(OC)c1
IC50: 22.7 µM | IC90: 26 µM

OC(CN1CCCCC1)Cn1c2ccc(Cl)cc2c2cc(Cl)ccc21 (centres undefined)
IC50: 11.2 µM | IC90: 12.5 µM

CC(C)Cn1c(N2CCN(C(=O)/C=C/c3ccccc3)CC2)nc2ccccc21
IC50: 34 µM | IC90: 47.4 µM

O=C1C(Br)=Cc2cccc3cccc1c23
IC50: < 0.2 µM | IC90: < 0.2 µM

CCOc1ccc(/C=N/OCC(=O)Nc2cc(C)on2)cc1
IC50: 90 µM | IC90: > 100 µM

Cc1cc(-c2n[nH]c(=S)n2/N=C/C(Br)=C/c2ccccc2)n[nH]1
IC50: 5.55 µM | IC90: 8.35 µM

CC1=C(/C=C/C(C)=C/C=C/C(C)=C/C(=O)Nc2ccc(O)cc2)C(C)(C)CCC1
IC50: 44.2 µM | IC90: 64.7 µM

CCCCCC(O)c1cccc(OCc2ccc3ccccc3n2)c1 (centres undefined)
IC50: 35.4 µM | IC90: 56 µM

CCc1ccc2[nH]c(=O)c(CN(CCCN3CCOCC3)C(=O)Nc3cccc(Cl)c3)cc2c1
IC50: 33.7 µM | IC90: 40.5 µM

C=CCc1c(C)nc(SC)nc1Nc1ccc(C(C)=O)cc1
IC50: 34.6 µM | IC90: 52.4 µM

CCCCN1C(=O)C2(NNc3ccccc3O2)c2ccccc21 (centres undefined)
IC50: 92.1 µM | IC90: > 100 µM

C(=N\Nc1ncnc2sc3c(c12)CCC3)/c1cccs1
IC50: 36.9 µM | IC90: 54.2 µM

COc1cc(C)c(/C=C/C(C)=C/C=C/C(C)=C/C(=O)O)c(C)c1C
IC50: 24.7 µM | IC90: 43.5 µM

O=C(CSC(=S)N1CCCC1)c1cc(Br)cc(Br)c1O
IC50: 41.2 µM | IC90: 45.4 µM

O=C1Nc2cc(C(=O)NCCCN3CCOCC3)ccc2S/C1=C/c1cccc(Cl)c1
IC50: 32.9 µM | IC90: 44.9 µM

CCc1cc(C(=O)NNC(=O)CCl)sc1C
IC50: 5.03 µM | IC90: 7.55 µM

O=C(C1CCCN(c2ncnc3c2nc2n3CCCCC2)C1)N1CCN(c2ccc(Cl)cc2)CC1 (centres undefined)
IC50: 38.1 µM | IC90: 51 µM

O=C(Nc1ccc2nsnc2c1)NC1CCCCC1
IC50: 44.3 µM | IC90: > 100 µM

Cc1[nH]c2ccccc2c1C(=O)COC(=O)c1ccc([N+](=O)[O-])s1
IC50: 1.32 µM | IC90: 3.24 µM

CC(=O)Nc1ccc(S(=O)(=O)Nc2ccc(N3CCCCC3)cc2)cc1
IC50: 12.4 µM | IC90: 15.9 µM

O=C(Nc1ccn(Cc2ccccc2F)n1)c1ccc(COc2ccccc2Cl)cc1
IC50: 11.2 µM | IC90: 16.1 µM

O=C(NCCCN1CCOCC1)c1cc2c([nH]c3ccccc32)c(-c2cccc(Br)c2)n1
IC50: 18.6 µM | IC90: 24.3 µM

C=C(C)C(=O)OCC(O)COc1ccc(C(C)(C)c2ccc(OCC(O)COC(=O)C(=C)C)cc2)cc1 (centres undefined)
IC50: 35.6 µM | IC90: 49.1 µM

CCCc1cnc(NCCNCC(O)COc2ccc(Cl)c(Cl)c2)nc1 (centres undefined)
IC50: 24.2 µM | IC90: 27.7 µM

CCOCCN1CCN(c2c(CC)c(C)nc3cc(-c4cc(OC)cc(OC)c4)nn23)CC1
IC50: 24.5 µM | IC90: 38.2 µM

Nc1ccccc1C#CC(=O)c1ccccc1
IC50: 4.11 µM | IC90: 21.7 µM

Cc1cc(NC(=O)CCl)no1
IC50: 2.63 µM | IC90: 5.19 µM

CN(CCCNC(=O)c1cc2c(Cl)nc3ccccc3c2s1)Cc1ccccc1
IC50: 55.7 µM | IC90: 91.1 µM

CCc1c(C2(O)CCCCC2)[nH]c2ccc(C(F)(F)F)cc12
IC50: 40.2 µM | IC90: > 50 µM

CC1CCCC/C1=N\NC(=S)NCCc1ccccc1 (centres undefined)
IC50: 42.5 µM | IC90: 47.9 µM

Cc1cc(NC2CCCCC2)nc(-c2ccccc2O)n1
IC50: 35.9 µM | IC90: 50.2 µM

CC(C)=CCOc1ccc([C@@H]2COc3c(ccc4c3C=CC(C)(C)O4)C2)c(O)c1
IC50: 25.4 µM | IC90: 43 µM

Cc1cccc(C(=O)OCC(=O)N2CCc3ccccc3C2)c1O
IC50: 24.8 µM | IC90: > 25 µM

COc1ccc(NCc2nnc(SCC(=O)c3ccc(OC)cc3)o2)cc1
IC50: 20.8 µM | IC90: 22.9 µM

O=C(C[n+]1cc(-c2ccc(Cl)cc2)n2c1CCC2)Nc1nc(-c2ccccc2)cs1
IC50: 23.4 µM | IC90: 26.7 µM

Cc1ccc(N2CCN(C(=O)c3cn(CC4CCCCC4)nn3)C(C)C2)cc1 (centres undefined)
IC50: 39.5 µM | IC90: 50.3 µM

Cc1ccc(-n2c(C)cc(/C=N/NC(N)=S)c2C)cc1
IC50: 12.2 µM | IC90: 20 µM

Cc1ccccc1NC1=C/C(=N\S(=O)(=O)c2cccs2)c2ccccc2C1=O
IC50: 11.3 µM | IC90: 12.3 µM

COC(=O)COc1ccc(-c2ccccc2)cc1C=O
IC50: 16.1 µM | IC90: 26 µM

CCc1ccc(-c2nn(-c3ccccc3)cc2CSC(=N)N)cc1
IC50: 16.5 µM | IC90: 20.4 µM

Cn1cnc(Sc2ncnc3nc[nH]c23)c1[N+](=O)[O-]
IC50: 12.1 µM | IC90: 21.1 µM

Cc1nc2ccc(NC(=O)c3ccc([N+](=O)[O-])cc3[N+](=O)[O-])cc2s1
IC50: 35.7 µM | IC90: > 100 µM

COc1cc(C2c3cc4c(cc3C(OC3OC5COC(c6cccs6)OC5C(O)C3O)C3COC(=O)C23)OCO4)cc(OC)c1O (centres undefined)
IC50: 27.6 µM | IC90: 35.4 µM

Cc1c(Cl)cccc1-c1ccc(CNCc2ccccn2)o1
IC50: 4.66 µM | IC90: 13.6 µM

Cc1cc(NC(=O)c2sccc2C)n(-c2nc3ccccc3[nH]2)n1
IC50: 10.2 µM | IC90: > 100 µM

Cc1ccc(-c2nc3ccsc3c(=O)o2)cc1
IC50: 4.19 µM | IC90: > 100 µM

COc1ccc(Cc2nc3ccc(C(=O)NCCCSC)cc3o2)cc1OC
IC50: 43.1 µM | IC90: 65.2 µM

Cc1cc(C)n(-c2nc(Nc3ccccc3C(F)(F)F)nc(-n3nc(C)cc3C)n2)n1
IC50: 1.3 µM | IC90: 2.01 µM

CCOC(=O)CSc1nn(-c2ccccc2)c(=S)s1
IC50: 6.12 µM | IC90: 6.9 µM

C/C(=N\Nc1ccc(Cl)c(Cl)c1)c1ccc(-n2ccnc2)cc1
IC50: 87.2 µM | IC90: 95.6 µM

COc1ccc(C(=O)c2c(C(F)(F)F)oc3c2C(=O)c2ccccc2C3=O)cc1OC
IC50: 16.7 µM | IC90: 22.1 µM

O=C(NC(C(=O)N/N=C/c1cccc2ccccc12)c1n[nH]c(=O)c2ccccc12)c1ccccc1 (centres undefined)
IC50: 58.8 µM | IC90: > 100 µM

CC(C)(C)OC(=O)NNC(=S)NC1CCCCC1
IC90: > 100 µM

NC(N)=Nc1nc(-c2ccccc2)c2ccccc2n1
IC50: 90.1 µM | IC90: > 100 µM

CCOc1ccc2nc(NC(=O)C34CC5CC(CC(NC(C)=O)(C5)C3)C4)sc2c1
IC50: 23.2 µM | IC90: 38.4 µM

Cc1cc(Nc2cc(Cl)nc(Sc3ccc(NC(=O)C4CC4)cc3)n2)n[nH]1
IC50: 43.2 µM | IC90: 59.2 µM

CC(C)CNC(=S)NC(=O)c1csc([N+](=O)[O-])c1
IC50: 22.2 µM | IC90: 53.7 µM

O=c1c(O)c(-c2cccs2)oc2ccccc12
IC50: 34.4 µM | IC90: > 100 µM

Cc1ccc(C2=NN(C)c3nc4ccccc4n3C2)cc1
IC50: 59.3 µM | IC90: > 100 µM

Cc1nonc1NC(=O)CSc1ccc(-c2ccccc2)nn1
IC50: 41.2 µM | IC90: 58.9 µM

CSc1nsc(/C=C/Nc2ccc(O)cc2C)c1C#N
IC50: 44.5 µM | IC90: 49.6 µM

O=C(OCC(=O)N1CCCc2ccccc21)c1ccc(S(=O)(=O)C(F)F)cc1
IC50: 37.9 µM | IC90: 49.2 µM

CCCC(=O)Nc1ccc(C(=O)/C=C/c2ccc(SC)cc2)cc1
IC50: 64.3 µM | IC90: 85.4 µM

C=CCn1cccc(/C=C/C(=O)c2ccc(C(C)(C)C)cc2)c1=S
IC50: 68 µM | IC90: 86.8 µM
